Assay results reported in patent US4548925A, “Antibiotic M43A, pharmaceutical composition and method of use” (Eli Lilly and Company, priority 1984, dated 1985).
Values after ≈ are worked out from the molar mass of the structure shown.

Tests used:
Escherichia coli N10 = assay: In vitro MIC, standard agar-dilution assay; format: cell-based; settings: M43A phosphate salt, vancomycin free base
[1] = test system: Clostridium perfringens 81; format: cell-based; settings: agar dilution, read after 24 hrs incubation
[2] = test system: Streptococcus sp. group D 9960; settings: agar dilution, M43A phosphate salt, vancomycin free base
[3] = test system: Streptococcus faecium ATCC 9790; settings: agar dilution, M43A phosphate salt, vancomycin free base
[4] = test system: Staphylococcus aureus V41; assay: In vitro MIC, standard agar-dilution assay; format: cell-based; settings: M43A phosphate salt, vancomycin free base
[5] = test system: Klebsiella pneumoniae X26; assay: In vitro MIC, standard agar-dilution assay; format: cell-based; settings: M43A phosphate salt, vancomycin free base
Streptococcus pyogenes = assay: Experimental bacterial infection in mice, ED50; format: in vivo; settings: subcutaneous, two doses, dose protecting 50% of animals
Escherichia coli TEM = assay: In vitro MIC, standard agar-dilution assay; format: cell-based; settings: M43A phosphate salt, vancomycin free base
[6] = test system: Staphylococcus aureus X400; assay: In vitro MIC, standard agar-dilution assay; format: cell-based; settings: M43A phosphate salt, vancomycin free base
[7] = test system: Haemophilus influenzae 76; assay: In vitro MIC, standard agar-dilution assay; format: cell-based; settings: M43A phosphate salt, vancomycin free base
[8] = test system: Streptococcus pyogenes C203; assay: In vitro MIC, standard agar-dilution assay; format: cell-based; settings: M43A phosphate salt, vancomycin free base
Staphylococcus aureus = assay: Experimental bacterial infection in mice, ED50; format: in vivo; settings: subcutaneous, two doses, dose protecting 50% of animals
[9] = test system: Klebsiella pneumoniae X68; assay: In vitro MIC, standard agar-dilution assay; format: cell-based; settings: M43A phosphate salt, vancomycin free base
[10] = test system: Haemophilus influenzae C.L.; assay: In vitro MIC, standard agar-dilution assay; format: cell-based; settings: M43A phosphate salt, vancomycin free base
Escherichia coli EC14 = assay: In vitro MIC, standard agar-dilution assay; format: cell-based; settings: M43A phosphate salt, vancomycin free base
[11] = test system: Klebsiella pneumoniae KAE; assay: In vitro MIC, standard agar-dilution assay; format: cell-based; settings: M43A phosphate salt, vancomycin free base
Streptococcus pneumoniae = assay: Experimental bacterial infection in mice, ED50; format: in vivo; settings: subcutaneous, two doses, dose protecting 50% of animals
[12] = test system: Fusobacterium necrophorum 6054A; assay: Susceptibility of anaerobic isolates, agar-dilution MIC; format: cell-based; settings: read after 24 hrs incubation
Method: (§1) . | ^a MIC's were determined by the agardilution method; endpoints were
(§2) read after 24hrs. incubation.

[13] = test system: Eubacterium aerofaciens 1235; assay: as above; format: cell-based; settings: read after 24 hrs incubation
Method: as §1, §2

[14] = test system: Peptostreptococcus intermedius 1264; assay: as above; format: cell-based; settings: read after 24 hrs incubation
Method: as §1, §2

[15] = test system: Bacteroides melaninogenicus 1856/28; assay: as above; format: cell-based; settings: read after 24 hrs incubation
Method: as §1, §2

Bacteroides fragilis 111 = assay: as above; format: cell-based; settings: read after 24 hrs incubation
Method: as §1, §2

[16] = test system: Clostridium difficile 2994; assay: as above; format: cell-based; settings: read after 24 hrs incubation
Method: as §1, §2

[17] = test system: Bacteroides melaninogenicus 2736; assay: as above; format: cell-based; settings: read after 24 hrs incubation
Method: as §1, §2

[18] = test system: Peptococcus asaccharolyticus 1302; assay: as above; format: cell-based; settings: read after 24 hrs incubation
Method: as §1, §2

[19] = test system: Peptostreptococcus anaerobius 1428; assay: as above; format: cell-based; settings: read after 24 hrs incubation
Method: as §1, §2

[20] = test system: Bacteroides fragilis 1936B; assay: as above; format: cell-based; settings: read after 24 hrs incubation
Method: as §1, §2

[21] = test system: Bacteroides vulgatis 1211; assay: as above; format: cell-based; settings: read after 24 hrs incubation
Method: as §1, §2

[22] = test system: Bacteroides corrodens 1874; assay: as above; format: cell-based; settings: read after 24 hrs incubation
Method: as §1, §2

[23] = test system: Fusobacterium symbiosum 1470; assay: as above; format: cell-based; settings: read after 24 hrs incubation
Method: as §1, §2

[24] = test system: Clostridium septicum 1128; assay: as above; format: cell-based; settings: read after 24 hrs incubation
Method: as §1, §2

Peptococcus prevoti 1281 = assay: as above; format: cell-based; settings: read after 24 hrs incubation
Method: as §1, §2

[25] = test system: Propionibacterium acnes 79; assay: as above; format: cell-based; settings: read after 24 hrs incubation
Method: as §1, §2

[26] = test system: Bacteroides thetaiotaomicron 1438; assay: as above; format: cell-based; settings: read after 24 hrs incubation
Method: as §1, §2

[27] = test system: Bacteroides fragilis 1877; assay: as above; format: cell-based; settings: read after 24 hrs incubation
Method: as §1, §2

[28] = test system: Staphylococcus aureus NRRL B313; assay: In vitro MIC, standard agar-dilution assay; format: cell-based; settings: M43A phosphate salt, vancomycin free base

Compound: CN[C@H](CC(C)C)C(=O)N[C@H]1C(=O)N[C@@H](CC(N)=O)C(=O)N[C@H]2C(=O)N[C@H]3C(=O)N[C@H](C(=O)N[C@H](C(=O)O)c4cc(O)cc(O)c4-c4cc3ccc4O)[C@H](O)c3ccc(c(Cl)c3)Oc3cc2cc(c3O[C@@H]2O[C@H](CO)[C@@H](O)[C@H](O)[C@H]2O[C@H]2C[C@](C)(N)[C@H](O)[C@H](C)O2)Oc2ccc(cc2Cl)[C@H]1O [Vancomycin]
- MIC (Escherichia coli N10): > 128 µg/mL
- MIC [1]: 1 µg/mL (≈ 0.69 µM)
- MIC [2]: 4 µg/mL
- MIC [3]: 1 µg/mL
- MIC [4]: 1 µg/mL
- MIC [5]: > 128 µg/mL
- E50 (Streptococcus pyogenes): 1.2 mg/kg/2
- MIC (Escherichia coli TEM): > 128 µg/mL
- MIC [6]: 1 µg/mL
- MIC [7]: 32 µg/mL
- MIC [8]: 1 µg/mL
- E50 (Staphylococcus aureus): 1.62 mg/kg/2
- MIC [9]: > 128 µg/mL
- MIC [10]: 128 µg/mL
- MIC (Escherichia coli EC14): > 128 µg/mL
- MIC [11]: > 128 µg/mL
- E50 (Streptococcus pneumoniae): 1.47 mg/kg/2
- MIC [12]: 2 µg/mL (≈ 1.38 µM)
- MIC [13]: 16 µg/mL (≈ 11 µM)
- MIC [14]: 4 µg/mL (≈ 2.76 µM)
- MIC [15]: > 128 µg/mL
- MIC (Bacteroides fragilis 111): 64 µg/mL (≈ 44.2 µM)
- MIC [16]: 2 µg/mL (≈ 1.38 µM)
- MIC [17]: 8 µg/mL (≈ 5.52 µM)
- MIC [18]: 2 µg/mL (≈ 1.38 µM)
- MIC [19]: 2 µg/mL (≈ 1.38 µM)
- MIC [20]: 32 µg/mL (≈ 22.1 µM)
- MIC [21]: 16 µg/mL (≈ 11 µM)
- MIC [22]: 32 µg/mL (≈ 22.1 µM)
- MIC [23]: 2 µg/mL (≈ 1.38 µM)
- MIC [24]: 4 µg/mL (≈ 2.76 µM)
- MIC (Peptococcus prevoti 1281): 2 µg/mL (≈ 1.38 µM)
- MIC [25]: 2 µg/mL (≈ 1.38 µM)
- MIC [26]: 16 µg/mL (≈ 11 µM)
- MIC [27]: 32 µg/mL (≈ 22.1 µM)
- MIC [28]: 1 µg/mL
